Source: patent publication US20080286785A1, “Method to predict or monitor the response of a patient to an erbb receptor drug” (AstraZeneca UK Limited, priority 2005, published 2008)
Where two headings read alike, the source gives them in different places.

How the values were obtained:
[1] = N. Engl. J. Med. 2004; 350(21):2129-2139; cited from earlier work
[2] = all of the patients treated with gefitinib, 250 mg daily orally
[3] = four patients with EGFR mutations detected in tumour samples
[4] = patients with EGFR mutations in serum
[5] = patients without EGFR mutations in serum
[6] = serum EGFR mutation + by EGFR Scorpion Kit
[7] = serum EGFR mutation + by direct sequence
[8] = serum EGFR mutation − by EGFR Scorpion Kit
[9] = serum EGFR mutation − by direct sequence

In the case of `COc1cc2ncnc(Nc3ccc(F)c(Cl)c3)c2cc1OCCCN1CCOCC1` [gefitinib], the “patients that have a rapid and often dramatic clinical response” value [1] is listed as “about 10%”, the “Response PD (progressive disease), number of patients” value (NSCLC; 28 patients enrolled, RECIST) is listed as 11 n and the “Response PR (partial response), number of patients” value (NSCLC; 28 patients enrolled, RECIST) is listed as 9 n. The “Response SD (stable disease), number of patients” value (NSCLC; 28 patients enrolled, RECIST) was 8 n, the “median OS” value (NSCLC; [2]) was 306 days and the “median PFS” value (NSCLC; [2]) was 98 days. For the same molecule, the “responses to gefitinib: PD, number of patients” value (NSCLC; [3]) was 1, the “responses to gefitinib: PR, number of patients” value (NSCLC; [3]) was 2 and the “responses to gefitinib: SD, number of patients” value (NSCLC; [3]) was 1. The “median OS” value (NSCLC; [4]) was 611 days, the “median PFS” value (NSCLC; [4]) was 200 days and the “median OS” value (NSCLC; [5]) was 232 days. For the same molecule, the “median PFS” value (NSCLC; [5]) was 46 days, the “Response to gefitinib PD, number of patients” value (from here on “Response to gefitinib PD”) (NSCLC; [6]) was 2 and the “Response to gefitinib PR/SD, number of patients” value (“Response to gefitinib PR/SD” below) (NSCLC; [6]) was 11. The “Response to gefitinib PD” value (NSCLC; [7]) was 2, the “Response to gefitinib PR/SD” value (NSCLC; [7]) was 8 and the “Response to gefitinib PD” value (NSCLC; [8]) was 8. The “Response to gefitinib PR/SD” value (NSCLC; [8]) was 6, the “Response to gefitinib PD” value (NSCLC; [9]) was 8 and the “Response to gefitinib PR/SD” value (NSCLC; [9]) was 9.
